Results as given in publication PMC6222496 (Molecules : A Journal of Synthetic Chemistry and Natural …, 2018).
Where two headings read alike, the source gives them in different places.

Tests used:
B6.SJL mice [1] = conditions: cited from earlier work
human KOPr [2] = conditions: cited from earlier work
rat KOPr = conditions: cited from earlier work
Sprague Dawley rats [3] = conditions: rat, in vivo
rhesus monkeys = conditions: rhesus monkey, in vivo; cited from earlier work
rats [4] = conditions: cited from earlier work
rats [5] = conditions: 0.1 mg/kg; cited from earlier work
rats [6] = conditions: cited from earlier work; for pro-depressive effects: 2-ethoxymethyl ether Sal B 0.3 mg/kg, β-tetrahydropyran Sal B 2 mg/kg
hKOR = target: T1, hKOR (Homo sapiens, UniProt P41145); assay: cell-based; format: cell-based
T1 construct: host or cells: U2OS (PathHunter U2OS-hKOR-βarrestin2-DX)

B6.SJL mice [7] = conditions: mouse, in vivo; for EC50 (antinociception, % MPE): sc
B6.SJL mice [8] = format: in vivo, mouse
mice [9] = system: mice
rats [10] = system: rats
rats [11] = system: rats; remark: listed apart in the source
Sprague-Dawley rats [12] = conditions: rat, in vivo; cited from earlier work
Sprague-Dawley rats [13] = conditions: rat, in vivo; cited from earlier work; remark: listed apart in the source
B6.SJL mice [14] = conditions: cited from earlier work; for duration of action (antinociceptive effects): 1 mg/kg
rats [15] = conditions: 0.16 mg/kg; cited from earlier work
KOPr [16] = target: T2, KOPr (Homo sapiens, UniProt P41145); design: method as in PMID 25320048; conditions: human embryonic kidney cells; cited from earlier work
T2 construct: host or cells: CHO (HitHunter cell line)

Sprague Dawley rats [17] = conditions: rat, in vivo; cited from earlier work
mice [18] = conditions: Sal A 3–10 mg/kg, for 30 min; cited from earlier work
rats [19] = conditions: 0.3 mg/kg; cited from earlier work
mice [20] = conditions: mouse, in vivo; cited from earlier work
Rhesus macaques = conditions: 0.01–0.1 mg/kg i.v.; cited from earlier work
drug naïve rats = conditions: cited from earlier work
mice [21] = conditions: 1–3.2 mg/kg; cited from earlier work
[22] = system: P-glycoprotein efflux pump; conditions: cited from earlier work
KOPr [23] = target: T2, KOPr; assay: cell-based
Sprague-Dawley rats [24] = assay: Cocaine-induced hyperactivity; format: in vivo, rat; conditions: 0.3 mg/kg i.p., 45 min prior to cocaine 20 mg/kg
Sprague-Dawley rats [25] = assay: Expression of behavioral sensitization to cocaine; format: in vivo, rat; conditions: 0.3 mg/kg i.p. on day 10, 45 min before cocaine 20 mg/kg
Sprague Dawley rats [26] = assay: Sucrose self-administration / sucrose intake; format: in vivo, rat; conditions: 0.3 and 1.0 mg/kg i.p., 45 min pretreatment
Protocol: For sucrose reinforcement tests, rats were maintained at approximately 85% of their initial feeding weights with free access to water throughout the experiment. Rats were trained to orally self-administer a 10% sucrose solution in eight modular test chambers (Med Associates) as previously described. Rats were trained to self-administer sucrose orally using an auto-shaping procedure (45 min daily for ten days). Once stable responding was achieved, the animals were maintained on a Fixed Ratio 1 (FR1) schedule of reinforcement where depression of the active lever (left lever) led to the delivery of sucrose solution. Following oral acquisition, the response requirements were increased to an FR5 schedule of reinforcement. Daily 1 h sessions were conducted until there was less than 20% variation in responding for three consecutive days. The animals on stable FR5 reinforcements were subjected to the sucrose reinforcement test. On the test day, rats received either vehicle (75% DMSO, 1 mL/kg, i.p.) or Mesyl Sal B (0.3, 1.0 mg/kg, i.p.) and 45 min later, sucrose reinforced lever-press responding was recorded for 60 min.

rats [27] = assay: Forced swim test; format: in vivo, rat; conditions: 0.3 mg/kg i.p., 45 min before test
Protocol: The FST apparatus consisted of a cylinder (44 cm high and 20 cm in diameter) filled to 35 cm with water maintained at 25 ± 1 °C. On the habituation day, the rats were placed in the swim chamber for 15 min and the following day were administered either with Mesyl Sal B (0.3 mg/kg, i.p.) or the vehicle (75% DMSO, 1 mL/kg, i.p.) and placed in the swim chamber45 min later. The forced swimming behavior was recorded by a video camera and the climbing, swimming, or immobility behaviors were recorded for 5 min. Data were analyzed using the SMART software (version 3.0; PanLab, Barcelona, Spain).

human KOPr [28] = conditions: cited from earlier work; remark: listed apart in the source
rats [29] = conditions: rat, in vivo
mice [30] = system: mice; design: method as in PMID 28263712; conditions: chronic escalation drinking; cited from earlier work
mice [31] = system: mice; design: method as in PMID 28263712; conditions: 3 mg/kg; cited from earlier work
[32] = 2 mg/kg i.p., 5 min before formaldehyde

T1 sequence (P41145 whole entry): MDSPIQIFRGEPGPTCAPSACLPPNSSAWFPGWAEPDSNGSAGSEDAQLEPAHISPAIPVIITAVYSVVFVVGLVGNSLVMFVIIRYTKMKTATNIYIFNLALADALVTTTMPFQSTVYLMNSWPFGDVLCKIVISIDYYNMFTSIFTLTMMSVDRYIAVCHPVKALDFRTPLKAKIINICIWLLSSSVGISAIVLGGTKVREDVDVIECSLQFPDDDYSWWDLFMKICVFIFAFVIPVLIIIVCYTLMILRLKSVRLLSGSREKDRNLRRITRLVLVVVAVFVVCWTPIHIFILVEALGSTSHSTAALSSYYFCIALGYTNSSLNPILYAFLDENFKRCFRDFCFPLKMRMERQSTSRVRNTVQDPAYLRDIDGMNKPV
T1 sequence (P32121 whole entry partner): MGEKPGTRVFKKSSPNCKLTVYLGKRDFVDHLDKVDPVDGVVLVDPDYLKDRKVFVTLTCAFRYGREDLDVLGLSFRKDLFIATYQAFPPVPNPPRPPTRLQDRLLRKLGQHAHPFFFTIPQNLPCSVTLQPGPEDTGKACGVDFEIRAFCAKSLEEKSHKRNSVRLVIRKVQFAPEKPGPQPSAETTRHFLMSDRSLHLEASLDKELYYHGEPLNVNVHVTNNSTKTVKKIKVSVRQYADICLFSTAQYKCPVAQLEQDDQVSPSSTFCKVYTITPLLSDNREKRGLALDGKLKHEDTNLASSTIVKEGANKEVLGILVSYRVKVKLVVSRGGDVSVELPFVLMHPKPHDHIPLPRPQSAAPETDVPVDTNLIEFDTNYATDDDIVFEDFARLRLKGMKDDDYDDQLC
T2 sequence (P41145 whole entry): as the sequence (P41145 whole entry) above

spirobutyrolactone Sal B
formaldehyde-induced paw edema (B6.SJL mice [1]): significantly reduced
nociceptive phase of pain (B6.SJL mice [1]): did not reduce
antinociceptive effects, inflammatory phase (B6.SJL mice [1]; intraplantar 2% formaldehyde): potent antinociceptive effects

CN(C(=O)/C=C/c1ccoc1)[C@@H]1CC[C@@]2(O)[C@H]3Cc4ccc(O)c5c4[C@@]2(CCN3CC2CC2)[C@H]1O5 [nalfurafine]
signaling bias (human KOPr [2]): extreme G-protein biased signaling
signaling bias (rat KOPr): bias to a much lesser extent

Oc1ccc2c3c1O[C@H]1c4[nH]c5c(c4C[C@@]4(O)[C@@H](C2)N(CC2CC2)CC[C@]314)C[C@@]1(O)[C@H]2Cc3ccc(O)c4c3[C@@]1(CCN2CC1CC1)[C@H]5O4 [nor-BNI, Nor-binaltorphimine]
effect on U50488-induced decrease in recognition index (Sprague Dawley rats [3]): prevented

CC[C@]12CCN(CC3CC3)[C@H](C(=O)c3ccc(O)cc31)[C@@H]2C [ethylketazocine]
cocaine self-administration (rhesus monkeys): decreased
food reinforcements (rhesus monkeys): decreased

CCOCO[C@H]1C[C@@H](C(=O)OC)[C@]2(C)CC[C@H]3C(=O)O[C@H](c4ccoc4)C[C@]3(C)[C@H]2C1=O [2-ethoxymethyl ether Sal B]
cocaine-prime induced cocaine seeking (rats [4]; rats): attenuate
aversive effects in the CPA paradigm (rats [5]): did not show aversive effects
pro-depressive effects (rats [6]): did not

COC(=O)[C@@H]1C[C@H](OC(C)=O)C(=O)[C@H]2[C@@]1(C)CC[C@H]1C(=O)O[C@H](c3ccoc3)C[C@]21C [Sal A, Salvinorin A]
Bias Factor (hKOR): 0.35
Emax (B6.SJL mice [7]): 87%
EC50 (antinociception, % MPE) (B6.SJL mice [7]): 2.1 mg/kg
phase 1 nociceptive pain (0–15 min) (B6.SJL mice [8]; [32]): significant attenuation
phase 2 inflammatory pain (20–60 min) (B6.SJL mice [8]; [32]): significant attenuation
formaldehyde-induced paw edema (B6.SJL mice [8]; 60 min after formaldehyde, Sal A 2 mg/kg i.p.): significantly reduced
motor impairment (latency to fall) (mice [9]; 2 mg/kg i.p., at 2 and 15 min): significant motor impairment
taste aversion (saccharin consumption on test day) (rats [10]; 0.3 mg/kg): no effect
time spent in the open arm (rats [11]; 1 mg/kg): significantly decreased
locomotor activity produced by acute cocaine administration (Sprague-Dawley rats [12]): increased
cocaine-induced behavioral sensitization (Sprague-Dawley rats [13]): attenuated
duration of action (antinociceptive effects) (B6.SJL mice [14]; mice, i.p.): 15 min
anxiety-related effects (rats [15]): anxiolytic effects
cocaine-prime induced cocaine seeking (rats [4]; rats): attenuate
cocaine-prime induced reinstatement of drug seeking (rats [4]; rats): attenuate
signaling bias (KOPr [16]): balanced agonist
signaling bias (human KOPr [2]; human receptor): significantly biased towards the β-arrestin2 pathway
sucrose self-administration (Sprague Dawley rats [17]): no effects
motor coordination in rotarod performance test (mice [18]): induced motor incoordination
aversion in CTA experiments (rats [19]): no aversion
depressive effects (rats [6]; 0.25–2 mg/kg, rats): induces depressive effects
anti-depressive and anxiolytic effects (rats [6]; 10–1000 μg/kg, rats): potent anti-depressive and anxiolytic effects
climbing behavior (motor coordination) (mice [20]): rapidly disrupt climbing behavior
sedation (Rhesus macaques): sedative effect
spontaneous locomotion, open field (drug naïve rats; 0.3 mg/kg, rats): did not alter
place conditioning at higher doses (mice [21]): aversion
P-glycoprotein efflux pump substrate [22]: substrate

COC(=O)[C@@H]1C[C@H](OC2CCCCO2)C(=O)[C@H]2[C@@]1(C)CC[C@H]1C(=O)O[C@H](c3ccoc3)C[C@]21C (stereo partly drawn) [β-tetrahydropyran Sal B]
potency and efficacy, cumulative dose-response (B6.SJL mice [14]; compared with Sal A): more potent and more efficacious than Sal A
antinociceptive effects (B6.SJL mice [1]; intraplantar 2% formaldehyde): potent antinociceptive effects
cocaine-prime induced cocaine seeking (rats [4]; rats): attenuate
pro-depressive effects (rats [6]): did not

COC(=O)[C@@H]1C[C@H](OS(C)(=O)=O)C(=O)[C@H]2[C@@]1(C)CC[C@H]1C(=O)O[C@H](c3ccoc3)C[C@]21C [Mesyl Sal B, (2S,4aR,6aR,7R,9S,10aS,10bR)-9-(methanesulfonyloxy)-2-(3-furanyl)dodecahydro-6a, 10b-dimethyl-4,10-dioxy-2H-naptho [2,1-c]pyran-7-carboxylic acid methyl ester]
EC50 (KOPr [23]): 0.12 nM
Bias Factor (hKOR): 0.61
EC50 (hKOR): 236 nM
β-Arrestin Recruitment (PathHunter) Efficacy (hKOR): 90.2%
cocaine-induced hyperactivity (Sprague-Dawley rats [24]): suppressed
expression of cocaine behavioral sensitization (Sprague-Dawley rats [25]): suppresses
Emax (B6.SJL mice [7]): 38%
EC50 (antinociception, % MPE) (B6.SJL mice [7]): 3.0 mg/kg
pain score (B6.SJL mice [8]; mouse, in vivo): small but significant decrease
phase 1 nociceptive pain (0–15 min) (B6.SJL mice [8]; mouse, in vivo): minimally effective
phase 2 inflammatory pain (20–60 min) (B6.SJL mice [8]; mouse, in vivo): reducing phase 2 pain at the 30 min time point
formaldehyde-induced paw edema (B6.SJL mice [8]; mouse, in vivo, ip, 2 mg/kg): no significant reduction
sucrose intake (sucrose-reinforced responding) (Sprague Dawley rats [26]): no effect
swimming time (rats [27]): significant decrease
time spent immobile (rats [27]): significant increase
Ki (human KOPr [28]): 2.3 ± 0.1 nM
recognition index (RI) value (Sprague Dawley rats [3]): No change
motor impairment (latency to fall) (mice [9]; mouse, in vivo): no motor impairment
time spent in the drug-paired chamber (rats [29]): did not significantly alter
taste aversion (saccharin consumption on test day) (rats [10]; rat, in vivo): did not induce taste aversion
time spent in the open arm (rats [11]; rat, in vivo): no effect
duration of action (antinociceptive effects) (B6.SJL mice [14]; mouse, in vivo, ip): 60 min
time at which effects are seen (onset of action) (B6.SJL mice [14]; mouse, in vivo): 30 to 60 min
cocaine-prime induced reinstatement of drug seeking (rats [4]; rat, in vivo): attenuate
alcohol intake (mice [30]): attenuates
sucrose or saccharin intake (mice [31]): no effect
locomotor activity, spontaneous open field (drug naïve rats; rat, in vivo): no significant effect

CCC12CCN(CC3(O)CC3)C(Cc3ccc(O)cc31)C2(C)C (stereo not drawn) [bremazocine]
cocaine self-administration (rhesus monkeys): decreased
food reinforcements (rhesus monkeys): decreased

RB-64
motor coordination in rotarod performance test (mice [18]): did not cause any motor deficits
